Test results as given in US9174994B2, “Enhanced treatment regimens using mTor inhibitors” (INTELLIKINE LLC, priority 2011, dated 2015).

Assay: Phase I clinical trial: treatment-emergent adverse events (patients, n (%)), dose limiting toxicity, MTD
Type: in vivo
Method: Safety, maximum tolerated dose (MTD), pharmacokinetics (PK) and preliminary antitumor activity were evaluated.
Pharmacodynamic (PD) endpoints were evaluated in surrogate (peripheral blood cells [PBCs], skin) and tumor tissues for the phosphorylation of TORC1-dependent markers (4EBP1/S6), and TORC2-dependent markers (AKT/PRAS40).

**Q.** With `CC(C)n1nc(-c2ccc3oc(N)nc3c2)c2c(N)ncnc21` [compound A] as the compound, how does the Rash macular (6 mg/3 W, QDx3d QW (N = 3)) read?
**A.** The Rash macular was 0 (0%).

**Q.** And the Urinary tract infection (6 mg/3 W, QDx3d QW (N = 3))?
**A.** Its Urinary tract infection is 0 (0%).

**Q.** And the Vomiting (6 mg/3 W, QDx3d QW (N = 3))?
**A.** Its Vomiting is 1 (33%).

**Q.** What about the Asthenia (6 mg/3 W, QDx3d QW (N = 3), 2nd Asthenia line) of the same compound?
**A.** The Asthenia was 0 (0%).

**Q.** What about the Anaemia (6 mg/day (N = 7)) of the same compound?
**A.** Its Anaemia is 0 (0%).

**Q.** And the Asthenia (6 mg/day (N = 7))?
**A.** The Asthenia was 2 (29%).

**Q.** And the Blood creatinine increased (6 mg/day (N = 7))?
**A.** Its Blood creatinine increased is 1 (14%).

**Q.** What about the Coagulopathy (6 mg/day (N = 7)) of the same compound?
**A.** Its Coagulopathy is 0 (0%).

**Q.** And the Confusional state (6 mg/day (N = 7))?
**A.** Its Confusional state is 0 (0%).

**Q.** What about the Cough (6 mg/day (N = 7)) of the same compound?
**A.** The Cough was 0 (0%).

**Q.** What about the Decreased appetite (6 mg/day (N = 7)) of the same compound?
**A.** The Decreased appetite was 1 (14%).

**Q.** What about the Dehydration (6 mg/day (N = 7)) of the same compound?
**A.** The Dehydration was 0 (0%).

**Q.** And the Diarrhoea (6 mg/day (N = 7))?
**A.** Its Diarrhoea is 5 (71%).

**Q.** And the Dizziness (6 mg/day (N = 7))?
**A.** The Dizziness was 0 (0%).

**Q.** And the Dry mouth (6 mg/day (N = 7))?
**A.** Its Dry mouth is 0 (0%).

**Q.** What about the Dry skin (6 mg/day (N = 7)) of the same compound?
**A.** The Dry skin was 0 (0%).

**Q.** And the Dysgeusia (6 mg/day (N = 7))?
**A.** Its Dysgeusia is 1 (14%).

**Q.** What about the Dyspepsia (6 mg/day (N = 7)) of the same compound?
**A.** The Dyspepsia was 0 (0%).

**Q.** What about the Dyspnoea (6 mg/day (N = 7)) of the same compound?
**A.** The Dyspnoea was 0 (0%).

**Q.** And the Dyspnoea exertional (6 mg/day (N = 7))?
**A.** The Dyspnoea exertional was 0 (0%).

**Q.** What about the Eye infection (6 mg/day (N = 7)) of the same compound?
**A.** The Eye infection was 1 (14%).

**Q.** What about the Fatigue (6 mg/day (N = 7)) of the same compound?
**A.** The Fatigue was 1 (14%).

**Q.** And the Gastritis (6 mg/day (N = 7))?
**A.** Its Gastritis is 0 (0%).

**Q.** And the Gravitational oedema (6 mg/day (N = 7))?
**A.** The Gravitational oedema was 0 (0%).

**Q.** What about the Hypercholesterolaemia (6 mg/day (N = 7)) of the same compound?
**A.** Its Hypercholesterolaemia is 3 (43%).

**Q.** What about the Hyperglycaemia (6 mg/day (N = 7)) of the same compound?
**A.** The Hyperglycaemia was 7 (100%).

**Q.** What about the Hypocalcaemia (6 mg/day (N = 7)) of the same compound?
**A.** The Hypocalcaemia was 0 (0%).

**Q.** And the Insomnia (6 mg/day (N = 7))?
**A.** Its Insomnia is 1 (14%).

**Q.** What about the Lymphopenia (6 mg/day (N = 7)) of the same compound?
**A.** The Lymphopenia was 0 (0%).

**Q.** And the Mucosal inflammation (6 mg/day (N = 7))?
**A.** The Mucosal inflammation was 2 (29%).

**Q.** What about the Muscle spasms (6 mg/day (N = 7)) of the same compound?
**A.** Its Muscle spasms is 1 (14%).

**Q.** What about the Nausea (6 mg/day (N = 7)) of the same compound?
**A.** Its Nausea is 3 (43%).

**Q.** And the Orthostatic hypotension (6 mg/day (N = 7))?
**A.** Its Orthostatic hypotension is 0 (0%).

**Q.** And the Panniculitis (6 mg/day (N = 7))?
**A.** The Panniculitis was 0 (0%).

**Q.** And the “Patients Reporting at Least One Related TEAE” value (from here on “Patients Reporting”) (6 mg/day (N = 7))?
**A.** Its value is 7 (100%).

**Q.** What about the Polyuria (6 mg/day (N = 7)) of the same compound?
**A.** Its Polyuria is 0 (0%).

**Q.** What about the Pruritus (6 mg/day (N = 7)) of the same compound?
**A.** Its Pruritus is 5 (71%).

**Q.** And the Rash (6 mg/day (N = 7))?
**A.** The Rash was 5 (71%).

**Q.** And the Skin discolouration (6 mg/day (N = 7))?
**A.** Its Skin discolouration is 0 (0%).

**Q.** What about the Skin exfoliation (6 mg/day (N = 7)) of the same compound?
**A.** The Skin exfoliation was 0 (0%).

**Q.** What about the Thrombocytopenia (6 mg/day (N = 7)) of the same compound?
**A.** The Thrombocytopenia was 0 (0%).

**Q.** And the Vomiting (6 mg/day (N = 7))?
**A.** Its Vomiting is 3 (43%).

**Q.** And the Weight decreased (6 mg/day (N = 7))?
**A.** Its Weight decreased is 0 (0%).

**Q.** And the Diarrhoea (7 mg/5 W, QDx5d QW (N = 3))?
**A.** The Diarrhoea was 1 (33%).

**Q.** What about the “Patients Reporting” value (7 mg/5 W, QDx5d QW (N = 3)) of the same compound?
**A.** The value was 1 (33%).

**Q.** And the Rash (7 mg/5 W, QDx5d QW (N = 3))?
**A.** The Rash was 1 (33%).

**Q.** And the Urine tract infection (7 mg/5 W, QDx5d QW (N = 3))?
**A.** The Urine tract infection was 0 (0%).

**Q.** And the Vomiting (7 mg/5 W, QDx5d QW (N = 3))?
**A.** Its Vomiting is 0 (0%).

**Q.** And the Nausea (7 mg/5 W, QDx5d QW (N = 3), 1st Nausea line)?
**A.** Its Nausea is 0 (0%).

**Q.** And the Nausea (7 mg/5 W, QDx5d QW (N = 3), 2nd Nausea line)?
**A.** Its Nausea is 1 (33%).

**Q.** What about the Anaemia (7 mg/day (N = 8)) of the same compound?
**A.** Its Anaemia is 2 (25%).

**Q.** What about the Asthenia (7 mg/day (N = 8)) of the same compound?
**A.** Its Asthenia is 4 (50%).

**Q.** And the Blood creatinine increased (7 mg/day (N = 8))?
**A.** Its Blood creatinine increased is 4 (50%).

**Q.** What about the Coagulopathy (7 mg/day (N = 8)) of the same compound?
**A.** Its Coagulopathy is 1 (13%).

**Q.** And the Confusional state (7 mg/day (N = 8))?
**A.** The Confusional state was 1 (13%).

**Q.** And the Cough (7 mg/day (N = 8))?
**A.** Its Cough is 1 (13%).

**Q.** What about the Decreased appetite (7 mg/day (N = 8)) of the same compound?
**A.** Its Decreased appetite is 3 (38%).

**Q.** What about the Dehydration (7 mg/day (N = 8)) of the same compound?
**A.** The Dehydration was 2 (25%).

**Q.** What about the Diarrhoea (7 mg/day (N = 8)) of the same compound?
**A.** The Diarrhoea was 3 (38%).

**Q.** What about the Dizziness (7 mg/day (N = 8)) of the same compound?
**A.** The Dizziness was 1 (13%).

**Q.** What about the Dry mouth (7 mg/day (N = 8)) of the same compound?
**A.** The Dry mouth was 3 (38%).

**Q.** What about the Dry skin (7 mg/day (N = 8)) of the same compound?
**A.** The Dry skin was 1 (13%).

**Q.** What about the Dysgeusia (7 mg/day (N = 8)) of the same compound?
**A.** The Dysgeusia was 2 (25%).

**Q.** What about the Dyspepsia (7 mg/day (N = 8)) of the same compound?
**A.** The Dyspepsia was 0 (0%).

**Q.** And the Dyspnoea (7 mg/day (N = 8))?
**A.** Its Dyspnoea is 1 (13%).

**Q.** And the Dyspnoea exertional (7 mg/day (N = 8))?
**A.** Its Dyspnoea exertional is 0 (0%).

**Q.** And the Eye infection (7 mg/day (N = 8))?
**A.** The Eye infection was 0 (0%).

**Q.** And the Fatigue (7 mg/day (N = 8))?
**A.** The Fatigue was 2 (25%).

**Q.** And the Gastritis (7 mg/day (N = 8))?
**A.** The Gastritis was 1 (13%).

**Q.** What about the Gravitational oedema (7 mg/day (N = 8)) of the same compound?
**A.** The Gravitational oedema was 1 (13%).

**Q.** What about the Hypercholesterolaemia (7 mg/day (N = 8)) of the same compound?
**A.** The Hypercholesterolaemia was 1 (13%).

**Q.** And the Hyperglycaemia (7 mg/day (N = 8))?
**A.** Its Hyperglycaemia is 8 (100%).

**Q.** And the Hypocalcaemia (7 mg/day (N = 8))?
**A.** The Hypocalcaemia was 1 (13%).

**Q.** And the Insomnia (7 mg/day (N = 8))?
**A.** Its Insomnia is 0 (0%).

**Q.** And the Lymphopenia (7 mg/day (N = 8))?
**A.** Its Lymphopenia is 2 (25%).

**Q.** What about the Mucosal inflammation (7 mg/day (N = 8)) of the same compound?
**A.** Its Mucosal inflammation is 4 (50%).

**Q.** And the Muscle spasms (7 mg/day (N = 8))?
**A.** The Muscle spasms was 0 (0%).

**Q.** And the Nausea (7 mg/day (N = 8))?
**A.** The Nausea was 3 (38%).

**Q.** What about the Orthostatic hypotension (7 mg/day (N = 8)) of the same compound?
**A.** Its Orthostatic hypotension is 1 (13%).

**Q.** What about the Panniculitis (7 mg/day (N = 8)) of the same compound?
**A.** Its Panniculitis is 1 (13%).

**Q.** And the “Patients Reporting” value (7 mg/day (N = 8))?
**A.** Its value is 8 (100%).

**Q.** What about the Polyuria (7 mg/day (N = 8)) of the same compound?
**A.** The Polyuria was 0 (0%).

**Q.** And the Pruritus (7 mg/day (N = 8))?
**A.** Its Pruritus is 2 (25%).

**Q.** And the Rash (7 mg/day (N = 8))?
**A.** Its Rash is 4 (50%).

**Q.** What about the Skin discolouration (7 mg/day (N = 8)) of the same compound?
**A.** The Skin discolouration was 1 (13%).

**Q.** And the Skin exfoliation (7 mg/day (N = 8))?
**A.** Its Skin exfoliation is 1 (13%).

**Q.** And the Thrombocytopenia (7 mg/day (N = 8))?
**A.** Its Thrombocytopenia is 3 (38%).

**Q.** And the Vomiting (7 mg/day (N = 8))?
**A.** Its Vomiting is 3 (38%).

**Q.** What about the Weight decreased (7 mg/day (N = 8)) of the same compound?
**A.** Its Weight decreased is 1 (13%).

**Q.** And the ASTHENIA (7 mg/week (N = 3))?
**A.** The ASTHENIA was 0 (0%).

**Q.** What about the ATHENIA (7 mg/week (N = 3)) of the same compound?
**A.** The ATHENIA was 0 (0%).

**Q.** What about the Alanine aminotransferase increased (7 mg/week (N = 3)) of the same compound?
**A.** The Alanine aminotransferase increased was 1 (33%).

**Q.** And the Aspartate aminotransferase increased (7 mg/week (N = 3))?
**A.** Its Aspartate aminotransferase increased is 1 (33%).

**Q.** What about the Asthenia (7 mg/week (N = 3)) of the same compound?
**A.** Its Asthenia is 0 (0%).

**Q.** What about the Blood creatinine increased (7 mg/week (N = 3)) of the same compound?
**A.** Its Blood creatinine increased is 0 (0%).

**Q.** And the Blood triglycerides increased (7 mg/week (N = 3))?
**A.** The Blood triglycerides increased was 0 (0%).

**Q.** What about the DIARRHEA (7 mg/week (N = 3)) of the same compound?
**A.** The DIARRHEA was 0 (0%).

**Q.** And the Decreased appetite (7 mg/week (N = 3))?
**A.** The Decreased appetite was 0 (0%).

**Q.** And the Diarrhoea (7 mg/week (N = 3))?
**A.** Its Diarrhoea is 1 (33%).

**Q.** What about the Dysgeusia (7 mg/week (N = 3)) of the same compound?
**A.** The Dysgeusia was 1 (33%).

**Q.** And the Dyspepsia (7 mg/week (N = 3))?
**A.** Its Dyspepsia is 0 (0%).

**Q.** And the HYPERGLYCEMIA (7 mg/week (N = 3))?
**A.** Its HYPERGLYCEMIA is 0 (0%).

**Q.** What about the Hyperglycaemia (7 mg/week (N = 3)) of the same compound?
**A.** Its Hyperglycaemia is 1 (33%).

**Q.** What about the Lymphopenia (7 mg/week (N = 3)) of the same compound?
**A.** Its Lymphopenia is 1 (33%).

**Q.** And the Malaise (7 mg/week (N = 3))?
**A.** Its Malaise is 0 (0%).

**Q.** And the Mucosal inflammation (7 mg/week (N = 3))?
**A.** The Mucosal inflammation was 0 (0%).

**Q.** What about the Muscle spasms (7 mg/week (N = 3)) of the same compound?
**A.** Its Muscle spasms is 0 (0%).

**Q.** And the Nausea (7 mg/week (N = 3))?
**A.** The Nausea was 1 (33%).
